Source: article PMC11768591 (Pharmaceutics, 2024)
Converted amounts (≈) assume the structure as drawn.

What was measured:
[1] = test system: inflammation induced by carrageenan; experiment: Carrageenan-induced inflammation, paw volume by plethysmometer; assay type: in vivo, Male Wistar rats; settings: rat
Experimental: (§1) The drugs were prepared fresh at the desired dose before administration. […] In the CFA-induced inflammation model, the rats were briefly anesthetized with isoflurane, via nose cone, titrated to the lowest dose necessary to achieve non-response to distal tail pinch. […] In both models, the paw volume was measured by a digital plethysmometer 7150 (Ugo Basile, Varese, Italy). To measure volume, the injected paw was marked around 1 cm above the tibiotarsal joint with an indelible pen. The paw was immersed up to the mark every time. […] In the […] studies, data were expressed as the average ± S.E.M. of 6 animals per experimental group. For the inflammation and hyperalgesia experiments, time courses of volume change (ΔV in μL) versus time (h) or paw withdrawal latency time (s) versus time (h) were generated, respectively. From the time courses, the area under the curve (AUC) was calculated using the trapezoidal rule as a measure of the duration and intensity of the effects observed with the different treatments. Then, AUC was employed to construct dose-response curves and to compare the different treatments.

[2] = test system: inflammation induced by Freund's complete adjuvant; experiment: CFA-induced inflammation, paw volume by plethysmometer; assay type: in vivo, Male Wistar rats; settings: rat
Experimental: as §1

[3] = phosphate buffer at pH 7.2; cited from earlier work
[4] = Solubility in phosphate buffer pH 6.8 at 37.5 °C (supersaturated, UV/Vis 420 nm); assay type: physicochemical
Experimental: (§2) Then, 200 µL aliquots were taken for 1, 5, 10, 30 and 60 min. […] The solubility tests were performed in triplicate.

[5] = Solubility in distilled water at 37.5 °C (supersaturated, UV/Vis 420 nm); assay type: physicochemical
Experimental: as §2

[6] = test system: CFA-induced thermal hyperalgesia; experiment: CFA-induced thermal hyperalgesia, paw withdrawal latency; assay type: in vivo, Male Wistar rats; settings: rat, single oral dose 100 mg/kg
Experimental: (§3) CFA was administered at a concentration of 1 mg/mL and was previously dissolved in a mixture of paraffin oil (85%) and mannard monooleate (15%), whereas carrageenan was dissolved in an isotonic saline solution at 1%. The drugs were prepared fresh at the desired dose before administration.
(§4) The antihyperalgesic effect of the co-amorphous compound was evaluated using the thermal hyperalgesia model described by Dirig et al., with slight modifications. In this model, the rats were placed in acrylic observation chambers on a thin transparent glass plate maintained at a constant temperature of 30 °C. After a 30 min acclimatization period in the chambers, the animals received an intra-articular injection of 100 µL of CFA (1 mg/mL) or an intra-plantar injection of 50 µL of 1% carrageenan. Paw withdrawal latency to the thermal stimulus was measured before and 1, 2, 3, 4, 5 and 6 h after injection of CFA or carrageenan. To avoid tissue damage, a cutoff time of 20 s was used.
(§5) In the preclinic studies, data were expressed as the average ± S.E.M. of 6 animals per experimental group. […] From the time courses, the area under the curve (AUC) was calculated using the trapezoidal rule as a measure of the duration and intensity of the effects observed with the different treatments. […]

[7] = test system: carrageenan-induced thermal hyperalgesia; experiment: Carrageenan-induced thermal hyperalgesia, paw withdrawal latency; assay type: in vivo, Male Wistar rats; settings: rat, single oral dose 100 mg/kg
Experimental: as §3, §4, §5

[8] = oral 100–320 mg/kg, 1 h before carrageenan
[9] = oral 100–320 mg/kg, 1 h before CFA
[10] = single oral dose 100 mg/kg (mixture: curcumin 51.4 mg/kg + L-arginine 48.6 mg/kg)

Structure (SMILES) | effect on carrageenan-induced inflammation (paw volume change, AUC) [1, 8] | effect on CFA-induced inflammation (paw volume change, AUC) [2, 9] | half-life in solution [3] | solubility at 60 min ([4]; pH 6.8, after 60 min) | solubility at 1 min ([4]; pH 6.8, aqueous buffer, thermodynamic from solid, after 1 min) | solubility in distilled water ([5]; after 60 min) | solubility at 1 min ([5]; distilled water, water, thermodynamic from solid, after 1 min) | antihyperalgesic effect, CFA-induced thermal hyperalgesia (paw withdrawal latency) [6] | antihyperalgesic effect, carrageenan-induced thermal hyperalgesia (paw withdrawal latency) [7] | effect on carrageenan-induced inflammation (paw volume change, AUC) [1, 10] | effect on CFA-induced inflammation (paw volume change, AUC) [2, 10]
COc1cc(/C=C/C(=O)CC(=O)/C=C/c2ccc(O)c(OC)c2)ccc1O [curcumin] | failed to reverse the inflammatory effects | failed to reverse the inflammatory effects | around 10 min | 3.75 µg/mL (≈ 10.2 µM) | 1.36 µg/mL (≈ 3.69 µM) | 0.43 µg/mL (≈ 1.17 µM) | 0.03 µg/mL (≈ 0.0814 µM) | not curcumin or L-arginine, significantly increased the latency time | antinociceptive effects that were statistically different from the vehicle group |  | 
O=C(O)Cc1ccccc1Nc1c(Cl)cccc1Cl [diclofenac] |  |  |  |  |  |  |  |  |  | have anti-inflammatory effects | have anti-inflammatory effects
N=C(N)NCCC[C@H](N)C(=O)O [L-arginine] | failed to reverse the inflammatory effects | failed to reverse the inflammatory effects |  |  |  |  |  | not curcumin or L-arginine, significantly increased the latency time | antinociceptive effects that were statistically different from the vehicle group |  | 
